According to PMC9090415, “Discovery of small molecule inhibitors of Plasmodium falciparum apicoplast DNA polymerase” (Journal of Enzyme Inhibition and Medicinal Chemistry, 2022):

Molecular target: T1, bacteriophage T4 DNA polymerase (Enterobacteria phage T4, UniProt P04415)
T1 construct: made in house
T1 sequence (P04415 1-898): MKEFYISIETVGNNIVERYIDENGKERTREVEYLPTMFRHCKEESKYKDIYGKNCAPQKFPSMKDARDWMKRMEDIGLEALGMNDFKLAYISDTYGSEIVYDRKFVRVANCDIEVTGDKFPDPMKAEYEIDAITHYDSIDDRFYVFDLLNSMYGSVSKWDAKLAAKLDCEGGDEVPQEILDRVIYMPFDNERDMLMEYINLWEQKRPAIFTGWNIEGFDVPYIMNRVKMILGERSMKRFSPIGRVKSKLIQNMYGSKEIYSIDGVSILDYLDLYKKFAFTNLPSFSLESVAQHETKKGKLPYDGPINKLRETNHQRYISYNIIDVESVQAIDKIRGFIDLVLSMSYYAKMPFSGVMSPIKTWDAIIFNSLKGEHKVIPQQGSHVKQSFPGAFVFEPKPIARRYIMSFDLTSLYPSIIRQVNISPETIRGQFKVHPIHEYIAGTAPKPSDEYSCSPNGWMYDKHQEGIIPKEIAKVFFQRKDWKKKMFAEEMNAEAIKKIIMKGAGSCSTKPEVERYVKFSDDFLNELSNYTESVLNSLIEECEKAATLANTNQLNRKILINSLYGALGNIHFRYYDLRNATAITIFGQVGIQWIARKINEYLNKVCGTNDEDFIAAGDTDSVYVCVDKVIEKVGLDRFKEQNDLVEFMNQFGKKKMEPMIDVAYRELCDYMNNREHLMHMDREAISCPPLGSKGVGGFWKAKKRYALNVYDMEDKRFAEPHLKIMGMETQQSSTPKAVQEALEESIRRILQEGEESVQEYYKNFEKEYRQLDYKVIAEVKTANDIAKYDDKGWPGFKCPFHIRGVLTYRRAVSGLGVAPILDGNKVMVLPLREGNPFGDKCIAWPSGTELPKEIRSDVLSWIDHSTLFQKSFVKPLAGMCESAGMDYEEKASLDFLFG
Test: Counter-screen against bacteriophage T4 DNA polymerase
Type: biochemical
Details: for % inhibition T4 10' 2.5 / % inhibition T4 10' 5 / % inhibition T4 10' 10 / % inhibition T4 10' 20 / % inhibition T4 10' 40 / % inhibition T4 10' 80: read at 10'
How it was run: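 IC50 values come from dose-response testing of each compound against T4 DNA polymerase. This B-family polymerase was purified in-house and used as the counter-screen.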

Structure (SMILES): Cc1ccsc1Cn1c(C)ccc1C [Molecule 70, Cc1ccsc1Cn1c(C)ccc1C]
- % inhibition T4 10' 2.5 (DRC-1, concentration 2.5): -4.493%
- % inhibition T4 10' 5 (DRC-1, concentration 5): -2.675%
- % inhibition T4 10' 10 (DRC-1, concentration 10): 9.004%
- % inhibition T4 10' 20 (DRC-1, concentration 20): 13.0915%
- % inhibition T4 10' 40 (DRC-1, concentration 40): 20.7391%
- % inhibition T4 10' 80 (DRC-1, concentration 80): -6.46%
- % inhibition T4 70' 2.5 (DRC-1, read at 70', concentration 2.5): -3.335%
- % inhibition T4 70' 5 (DRC-1, read at 70', concentration 5): -3.037%
- % inhibition T4 70' 10 (DRC-1, read at 70', concentration 10): 6.944%
- % inhibition T4 70' 20 (DRC-1, read at 70', concentration 20): 8.488%
- % inhibition T4 70' 40 (DRC-1, read at 70', concentration 40): 14.2763%
- % inhibition T4 70' 80 (DRC-1, read at 70', concentration 80): -12.9684%
- % inhibition T4 130' 2.5 (DRC-1, read at 130', concentration 2.5): -4.899%
- % inhibition T4 130' 5 (DRC-1, read at 130', concentration 5): -4.557%
- % inhibition T4 130' 10 (DRC-1, read at 130', concentration 10): 3.714%
- % inhibition T4 130' 20 (DRC-1, read at 130', concentration 20): 4.205%
- % inhibition T4 130' 40 (DRC-1, read at 130', concentration 40): 10.2962%
- % inhibition T4 130' 80 (DRC-1, read at 130', concentration 80): -25.7177%
- % inhibition T4 10' 2.5 (DRC-2, concentration 2.5): -7%
- % inhibition T4 10' 5 (DRC-2, concentration 5): -1.66%
- % inhibition T4 10' 10 (DRC-2, concentration 10): 10%
- % inhibition T4 10' 20 (DRC-2, concentration 20): 11%
- % inhibition T4 10' 40 (DRC-2, concentration 40): 14%
- % inhibition T4 10' 80 (DRC-2, concentration 80): 7.37%
- % inhibition T4 40' 2.5 (DRC-2, read at 40', concentration 2.5): -7%
- % inhibition T4 40' 5 (DRC-2, read at 40', concentration 5): -2%
- % inhibition T4 40' 10 (DRC-2, read at 40', concentration 10): 10%
- % inhibition T4 40' 20 (DRC-2, read at 40', concentration 20): 11%
- % inhibition T4 40' 40 (DRC-2, read at 40', concentration 40): 14%
- % inhibition T4 40' 80 (DRC-2, read at 40', concentration 80): 7%
- % inhibition T4 90' 2.5 (DRC-2, read at 90', concentration 2.5): -5%
- % inhibition T4 90' 5 (DRC-2, read at 90', concentration 5): -2.51%
- % inhibition T4 90' 10 (DRC-2, read at 90', concentration 10): 8%
- % inhibition T4 90' 20 (DRC-2, read at 90', concentration 20): 9%
- % inhibition T4 90' 40 (DRC-2, read at 90', concentration 40): 12%
- % inhibition T4 90' 80 (DRC-2, read at 90', concentration 80): 5%
- % inhibition T4 180' 2.5 (DRC-2, read at 180', concentration 2.5): -7%
- % inhibition T4 180' 5 (DRC-2, read at 180', concentration 5): -9%
- % inhibition T4 180' 10 (DRC-2, read at 180', concentration 10): 1.9%
- % inhibition T4 180' 20 (DRC-2, read at 180', concentration 20): 4%
- % inhibition T4 180' 40 (DRC-2, read at 180', concentration 40): 8%
- % inhibition T4 180' 80 (DRC-2, read at 180', concentration 80): 1.21%

Structure (SMILES): O=C1CCCC2=C1C(c1ccccn1)C1=C(CCCC1=O)O2 [KU0194228]
- % inhibition T4 10' (DRC-2, concentration 10): 18%
- % inhibition T4 40' (DRC-2, concentration 20): 18%

Structure (SMILES): O=C(Nc1ccc2c(c1)Cc1cc(NC(=O)c3ccco3)ccc1-2)c1ccco1 [KU0038977]
- % inhibition T4 10' (DRC-2, concentration 80): 20%
- % inhibition T4 40' (DRC-2, concentration 20): 25%
- % inhibition T4 40' (DRC-2, concentration 40): 35%
- % inhibition T4 90' (DRC-2, concentration 20): 25%
- % inhibition T4 90' (DRC-2, concentration 40): 35%
- % inhibition T4 90' (DRC-2, concentration 80): 35%
- % inhibition T4 180' (DRC-2, 180', concentration 20): 20%
